Measured values published in US20240317735A1, “HYDROISOQUINOLINE OR HYDRONAPHTHYRIDINE COMPOUNDS FOR THE TREATMENT OF AUTOIMMUNE DISEASE” (Hoffmann-La Roche Inc., priority 2020, published 2024).

System: Balb/c 3T3 mouse fibroblasts
Test: 3T3 in vitro phototoxicity assay (Neutral Red uptake)
Format: cell-based
Details: for Phototoxicity factor: IC50 without vs with UV-A exposure, cut-off factor >5; for IC50: Mus musculus, BALB/c3T3, light or radiation study, 3T3 fibroblasts, approx. 5 J/cm^2 UVA, Neutral Red uptake
Text: Phototoxicity is defined as a toxic response that is elicited after the first exposure of the skin to certain chemicals and subsequent exposure to light, or that is induced similarly by skin irradiation after systemic administration of a chemical substance. The assay used in this study is designed to detect the phototoxic potential of a chemical by using a simple in vitro cytotoxicity assay with Balb/c 3T3 mouse fibroblasts. The principle of this test is a comparison of the cytotoxicity of a chemical when tested with and without exposure to a non-toxic dose of UVA-light. Cytotoxicity is expressed as a dose dependent reduction of the growth rate of cells as determined by uptake of the vital dye Neutral Red one day after treatment.
A small amount of substance was weighed and formulated freshly in DMSO just before the start of the exposure of the cells. This stock solution or appropriate dilutions with DMSO were added to the cell suspensions to obtain the required final concentrations. All solutions were generally prepared in Eppendorf caps and discarded after use.
• Chlorpromazine (HCL) (Sigma, Batch/Lot No.: 120M1328V), test concentration: 300 μg/mL, Solvent: PBS/3% DMSO
For this study the Neutral Red uptake (NRU) assay of Borenfreund and Puerner (Borenfreund, E, Puerner J A. Toxicity determined in vitro by morphological alterations and Neutral Red absorption. Toxicology Lett. 1985; 24:119-124) modified according to INVITTOX protocol No 78 (ERGATT/FRAME data bank of in vitro techniques in toxicology. INVITTOX PROTOCOL No 78. 3T3 NRU Phototoxicity Assay. March 1994) has been adapted to examine a possible phototoxic potential of the test item. This assay is based on the active uptake of the Neutral Red dye into the lysosomes of cultured murine fibroblasts. Because lysosomal membranes are known to be a site of action of many phototoxic compounds, this assay can provide a measure of potential for phototoxic injury.
A murine fibroblasts clone A 31 (ATCC no. CCL 163—passage No. 108) were cultured in 175 cm^2 tissue culture grade flasks, containing sDMEM (Dulbecco's […] Essential Medium, supplemented with 10% fetal calf serum, 2 mM L-glutamine, 100 units/ml Penicillin and 100 μg/ml streptomycin) at 37° C. in a humidified atmosphere of 6% CO2. Before cells approach confluence they were removed from flasks by trypsinisation. Prior to use in an assay, the cells were transferred to 96-well microtiter plates at a concentration of 1×10^4 cells/well in 100 μl volumes of sDMEM and allowed to attach for 24 h.
For incubation with murine fibroblasts, the test item was diluted in PBS/3% DMSO (detailed concentrations see in results).
Culture medium (Dulbecco's Modified Eagle Medium(DMEM), GlutaMAX (Gibco Ref 21885-025), 10% Fetal Bovine Serum (FBS) (Gibco Ref 10270-106), 1001U/ml Penicillin and 100 μg/mL Streptomycin (Gibco Ref 15140-122)) was removed from the wells and murine fibroblasts were washed with PBS. Afterwards 100 μL of PBS/3% DMSO containing the test item was added and target cells were incubated for 1 h at 37° C. with 6% CO2.
For each test item the microtiter plates were prepared according to Table 6. “UVA plates” were exposed to approx. 5 J/cm^2 UVA light, the “Dark plates” were kept in the dark and served as cytotoxicity control. Plates with chlorpromazine hydrochloride served as positive control. UV flux was measured with a UV-meter (Dr. Gröbel RM21).
Following UV irradiation, the test item was removed from the wells (one washing step with PBS) and replaced with sDMEM. Target cells were then incubated overnight at 37° C. in 6% CO2.
Each plate contained wells with cells and solvent but without test item which were either not incubated with Neutral Red solution (0% standard—S1) or were stained with Neutral Red (100% standard—S2) for calculation of the standard cell viability curve. Wells labeled with U01-U08 contained the different test item concentrations. […]

Cn1ncc2c(N3CCc4cc(N5CCNCC5)ccc4C3)ccnc21 [Example 3, 2-(1-methylpyrazolo[3,4-b]pyridin-4-yl)-6-piperazin-1-yl-3,4-dihydro-1H-isoquinoline]
Phototoxicity factor: 1 | IC50: > 100 µg/mL

CO[C@@H]1CN(c2ccc3c(n2)[C@@H](C)CN(c2cc(C)nc4c2cnn4C)C3)C[C@H]1N [Example 63, (3R,4R)-4-methoxy-1-[(8S)-6-(1,6-dimethylpyrazolo[3,4-b]pyridin-4-yl)-8-methyl-7,8-dihydro-5H-1,6-naphthyridin-2-yl]pyrrolidin-3-amine]
Phototoxicity factor: 1 | IC50: > 100 µg/mL

CO[C@@H]1CN(c2ccc3c(c2)[C@@H](C)CN(c2ccnc4c2cnn4C)C3)C[C@H]1N [Example 20, (3R,4R)-4-methoxy-1-[(4R)-4-methyl-2-(1-methylpyrazolo[3,4-b]pyridin-4-yl)-3,4-dihydro-1H-isoquinolin-6-yl]pyrrolidin-3-amine]
Phototoxicity factor: 1 | IC50: > 100 µg/mL
